≈ marks a conversion by molar mass, not a printed value. Like-named read-outs stand apart in the source and are kept apart here.
Assays:
Assay type in all cases: cell-based
[1] = tested on: Aureobasidium pullulan (Ap); experiment: Minimum inhibitory concentration (MIC) in malt yeast agar, Aureobasidium pullulan
In short: (§1)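 Fungal inocula from 7-day malt yeast agar cultures (30° C) were suspended in saline with octylphenoxy polyethoxy ethanol, diluted 1:9, and spotted onto malt yeast agar (pH 5.5) containing test compound at 0–500 ppm. Growth assessed after 72 hours at 30° C to give MIC.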

[2] = tested on: Klebsiella pneumoniae (Kp); experiment: Minimum inhibitory concentration (MIC) in nutrient agar, Klebsiella pneumoniae
In short: (§2)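 Bacteria were grown 24 h at 30° C in nutrient broth with shaking, then diluted to 10^8 CFU/mL. These suspensions were stamped onto dried nutrient agar plates, neutral (pH 6.8) and alkaline (pH 8.2), that held compound at final 500–1.0 ppm. The plates were incubated 48 h at 30° C.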

[3] = tested on: Aspergillus niger (An); experiment: Minimum inhibitory concentration (MIC) in malt yeast agar, Aspergillus niger
In short: as §1

[4] = tested on: Pseudomonas aeruginosa (PRD-10); experiment: Minimum inhibitory concentration (MIC) in nutrient agar, Pseudomonas aeruginosa PRD-10; settings: 48 h
In short: as §2

[5] = tested on: Saccharomyces cerevisiae (Sc); experiment: Minimum inhibitory concentration (MIC) in malt yeast agar, Saccharomyces cerevisiae
In short: (§3)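 Malt yeast agar pH 5.5 + cpd (from 1% soln in acetone/water) at final 500–zero ppm, poured at 48 °C, dried 24 h. Inoculum: 7-day 30 °C slants suspended in saline/octylphenoxy polyethoxy ethanol, diluted 1:9, replicator-spotted. Incubated 30 °C; read 48 h yeast, 72 h fungi.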

[6] = tested on: Escherichia coli (Ec); experiment: Minimum inhibitory concentration (MIC) in nutrient agar, Escherichia coli
In short: as §2

[7] = tested on: Pseudomonas aeruginosa (Pa); experiment: Minimum inhibitory concentration (MIC) in nutrient agar, Pseudomonas aeruginosa; settings: 30° C., 48 hours, read-out: Minimum Inhibitory Concentration, Pa
In short: as §2

[8] = tested on: Candida albicans (Ca); experiment: Minimum inhibitory concentration (MIC) in malt yeast agar, Candida albicans
In short: as §3

[9] = tested on: Fusarium oxysporum (Fo); experiment: Minimum inhibitory concentration (MIC) in malt yeast agar, Fusarium oxysporum; settings: 72 h, pH 5.5, read-out: Minimum Inhibitory Concentration, Fo
In short: as §1

[10] = tested on: Trichoderma viride (Tv); experiment: Minimum inhibitory concentration (MIC) in malt yeast agar, Trichoderma viride
In short: as §1

[11] = tested on: Salmonella choleraesuis (Se); experiment: Minimum inhibitory concentration (MIC) in nutrient agar, Salmonella choleraesuis; settings: Salmonella enterica
In short: as §2

[12] = tested on: Enterobacter aerogenes (Ea); experiment: Minimum inhibitory concentration (MIC) in nutrient agar, Enterobacter aerogenes; settings: Klebsiella aerogenes, 48 h
In short: as §2

[13] = tested on: Staphylococcus aureus (Sa); experiment: Minimum inhibitory concentration (MIC) in nutrient agar, Staphylococcus aureus
In short: as §2

[14] = tested on: Proteus vulgaris (Pv); experiment: Minimum inhibitory concentration (MIC) in nutrient agar, Proteus vulgaris; settings: 48 h
In short: as §2

[15] = tested on: Penicillium chrysogenum (Pc); experiment: Minimum inhibitory concentration (MIC) in malt yeast agar, Penicillium chrysogenum
In short: as §1

[16] = tested on: Bacillus subtilis (Bs); experiment: Minimum inhibitory concentration (MIC) in nutrient agar, Bacillus subtilis
In short: as §2

[17] = pH 5.5, malt yeast agar, 30° C., read-out: Minimum Inhibitory Concentration, Ap
[18] = 48 h, pH 8.2, read-out: Minimum Inhibitory Concentration, Kp
[19] = pH 6.8, nutrient agar, 30° C., 48 hours, read-out: Minimum Inhibitory Concentration, Kp
[20] = 72 h, pH 5.5, read-out: Minimum Inhibitory Concentration, An
[21] = pH 6.8, read-out: Minimum Inhibitory Concentration, PRD
[22] = pH 8.2, read-out: Minimum Inhibitory Concentration, PRD
[23] = pH 5.5, malt yeast agar, 30° C., 48 hours for yeast, read-out: Minimum Inhibitory Concentration, SC
[24] = 48 h, pH 6.8, read-out: Minimum Inhibitory Concentration, Ec
[25] = pH 8.2, nutrient agar, 30° C., 48 hours, read-out: Minimum Inhibitory Concentration, Ec
[26] = 48 h, pH 5.5, read-out: Minimum Inhibitory Concentration, Ca
[27] = 72 h, pH 5.5, read-out: Minimum Inhibitory Concentration, Tv
[28] = 48 h, pH 6.8, read-out: Minimum Inhibitory Concentration, SC
[29] = 48 h, pH 8.2, read-out: Minimum Inhibitory Concentration, SC
[30] = pH 6.8, read-out: Minimum Inhibitory Concentration, Ea
[31] = pH 8.2, read-out: Minimum Inhibitory Concentration, Ea
[32] = pH 6.8, nutrient agar, 30° C., 48 hours, read-out: Minimum Inhibitory Concentration, Sa
[33] = pH 8.2, nutrient agar, 30° C., 48 hours, read-out: Minimum Inhibitory Concentration, Sa
[34] = pH 6.8, read-out: Minimum Inhibitory Concentration, Pv
[35] = pH 8.2, read-out: Minimum Inhibitory Concentration, Pv
[36] = pH 5.5, malt yeast agar, 30° C., 72 hours for fungi, read-out: Minimum Inhibitory Concentration, PC
[37] = 48 h, pH 8.2, read-out: Minimum Inhibitory Concentration, Bs
[38] = pH 6.8, nutrient agar, 30° C., 48 hours, read-out: Minimum Inhibitory Concentration, Bs

Structure (SMILES)	MIC [1, 17]	MIC [2, 18]	MIC [2, 19]	MIC [3, 20]	MIC [4, 21]	MIC [4, 22]	MIC [5, 23]	MIC [6, 24]	MIC [6, 25]	MIC ([7]; pH 6.8, nutrient agar)	MIC ([7]; pH 8.2, nutrient agar)	MIC [8, 26]	MIC [9]	MIC [11, 29]	MIC [12, 30]	MIC [12, 31]	MIC [13, 32]	MIC [14, 34]	MIC [14, 35]	MIC [16, 38]	other results
N#CSCSc1nsnc1-c1cccnc1 [Example XXXI, 4-(3-Pyridyl)-3-thiocyanatomethylthio-1,2,5-thiadiazole]	9 µg/mL (≈ 33.8 µM)	> 500 µg/mL	500 µg/mL (≈ 1880 µM)	25 µg/mL (≈ 93.9 µM)	500 µg/mL (≈ 1880 µM)	> 500 µg/mL	9 µg/mL (≈ 33.8 µM)	500 µg/mL (≈ 1880 µM)	250 µg/mL (≈ 939 µM)	500 µg/mL (≈ 1880 µM)	> 500 µg/mL	25 µg/mL (≈ 93.9 µM)	25 µg/mL (≈ 93.9 µM)	> 500 µg/mL	500 µg/mL (≈ 1880 µM)	> 500 µg/mL	100 µg/mL (≈ 375 µM)	500 µg/mL (≈ 1880 µM)	> 500 µg/mL	50 µg/mL (≈ 188 µM)	MIC [10, 27]: 50 µg/mL (≈ 188 µM); MIC [11, 28]: 500 µg/mL (≈ 1880 µM); MIC [13, 33]: 50 µg/mL (≈ 188 µM); MIC [15, 36]: 9 µg/mL (≈ 33.8 µM); MIC [16, 37]: 25 µg/mL (≈ 93.9 µM)
N#CSCSc1nsnc1-c1ccccc1Cl [Example XX, 4-(2-Chlorophenyl)-3-thiocyanatomethylthio-1,2,5-thiadiazole]	9 µg/mL (≈ 30 µM)	> 500 µg/mL	500 µg/mL (≈ 1670 µM)		500 µg/mL (≈ 1670 µM)	> 500 µg/mL	9 µg/mL (≈ 30 µM)	500 µg/mL (≈ 1670 µM)	250 µg/mL (≈ 834 µM)	500 µg/mL (≈ 1670 µM)	> 500 µg/mL	250 µg/mL (≈ 834 µM)	25 µg/mL (≈ 83.4 µM)	> 500 µg/mL	500 µg/mL (≈ 1670 µM)	> 500 µg/mL	9 µg/mL (≈ 30 µM)	500 µg/mL (≈ 1670 µM)	> 500 µg/mL	9 µg/mL (≈ 30 µM)	MIC ([3]; pH 5.5, malt yeast agar, 30° C., 72 hours for fungi, read-out: Minimum Inhibitory Concentration, An): 9 µg/mL (≈ 30 µM); MIC ([10]; pH 5.5, malt yeast agar, 30° C., 72 hours for fungi, read-out: Minimum Inhibitory Concentration, Tv): > 500 µg/mL; MIC [11, 28]: 500 µg/mL (≈ 1670 µM); MIC [13, 33]: 9 µg/mL (≈ 30 µM); MIC [15, 36]: 9 µg/mL (≈ 30 µM); MIC ([16]; pH 8.2, nutrient agar, 30° C., 48 hours, read-out: Minimum Inhibitory Concentration, Bs): 9 µg/mL (≈ 30 µM)
N#CSc1nsnc1-c1ccccc1Cl [Example IV, 4-(2-Chlorophenyl)-3-thiocyanatol-1,2,5-thiadiazole]		500 µg/mL (≈ 1970 µM)	> 500 µg/mL	25 µg/mL (≈ 98.5 µM)	> 500 µg/mL	500 µg/mL (≈ 1970 µM)				> 500 µg/mL	500 µg/mL (≈ 1970 µM)		5 µg/mL (≈ 19.7 µM)	500 µg/mL (≈ 1970 µM)	> 500 µg/mL	500 µg/mL (≈ 1970 µM)	25 µg/mL (≈ 98.5 µM)	> 500 µg/mL	500 µg/mL (≈ 1970 µM)	< 10 µg/mL	MIC ([1]; pH 5.5, read-out: Minimum Inhibitory Concentration, Ap): 5 µg/mL (≈ 19.7 µM); MIC ([5]; 48 h, pH 5.5, read-out: Minimum Inhibitory Concentration, SC): 2.5 µg/mL (≈ 9.85 µM); MIC ([6]; 48 h, pH 8.2, read-out: Minimum Inhibitory Concentration, Ec): 500 µg/mL (≈ 1970 µM); MIC ([6]; pH 6.8, nutrient agar, 30° C., 48 hours, read-out: Minimum Inhibitory Concentration, Ec): 250 µg/mL (≈ 985 µM); MIC ([8]; pH 5.5, malt yeast agar, 30° C., 48 hours for yeast, read-out: Minimum Inhibitory Concentration, Ca): < 10 µg/mL; MIC [10, 27]: 10 µg/mL (≈ 39.4 µM); MIC ([11]; pH 6.8, nutrient agar, 30° C., 48 hours, read-out: Minimum Inhibitory Concentration, SC): 100 µg/mL (≈ 394 µM); MIC ([13]; 48 h, pH 8.2, read-out: Minimum Inhibitory Concentration, Sa): 500 µg/mL (≈ 1970 µM); MIC ([15]; 72 h, pH 5.5, read-out: Minimum Inhibitory Concentration, PC): 10 µg/mL (≈ 39.4 µM); MIC [16, 37]: 250 µg/mL (≈ 985 µM)
